# Earlier results in patent US20160007613A1, “Clonostachys rosea Inoculated Plant Materials with Fungicides and Adjuvants” (priority 2014, published 2016).
# Test system: Clonostachys rosea ACM941
# Conditions: research by Sutton and Brown; in words
row,Compound,toxicity to Clonostachys rosea ACM941
1,COCC(=O)N(c1c(C)cccc1C)C(C)C(=O)OC (centres unmarked) [metalaxyl],not metalaxyl is toxic
2,CN(C)C(=S)SSC(=S)N(C)C [thiram],toxic
